Experimental data from US20150322051A1, “Macrocyclic picolinamides as fungicides” (Dow AgroSciences LLC, priority 2014, published 2015).
Where two headings read alike, the source gives them in different places.

Experiments:
[1] = system: Mycosphaerella graminicola; anamorph: Septoria tritici (SEPTTR); assay: Leaf blotch of wheat (SEPTTR) whole-plant fungicidal test; format: in vivo; settings: Zymoseptoria tritici, topical; for pest or weed control at 121.5 g/ha: low volume (track spray) application, 121.5 g/H; for pest or weed control at 100 ppm: high volume application
Description: (§1) All fungicides were evaluated using the aforementioned method for their activity vs. all target diseases, unless stated otherwise. Wheat leaf blotch and brown rust activity were also evaluated using track spray applications, in which case the fungicides were formulated as EC formulations, containing 0.1% Trycol 5941 in the spray solutions. Wheat plants (variety Yuma) were grown from seed in a greenhouse in 50% mineral soil/50% soil-less Metro mix until the first leaf was fully emerged, with 7-10 seedlings per pot. These plants were inoculated with an aqueous spore suspension of Septoria tritici either prior to or after fungicide treatments. After inoculation the plants were kept in 100% relative humidity (one day in a dark dew chamber followed by two to three days in a lighted dew chamber at 20° C.) to permit spores to germinate and infect the leaf. The plants were then transferred to a greenhouse set at 20° C. for disease to develop. When disease symptoms were fully expressed on the 1st leaves of untreated plants, infection levels were assessed on a scale of 0 to 100 percent disease severity. Percent disease control was calculated using the ratio of disease severity on treated plants relative to untreated plants.

[2] = system: Puccinia triticina; synonym: Puccinia recondita f. sp. tritici (PUCCRT); assay: Wheat brown rust (PUCCRT) whole-plant fungicidal test; format: in vivo; settings: topical; for pest or weed control at 121.5 g/ha: low volume (track spray) application, 121.5 g/H; for pest or weed control at 100 ppm: high volume application
Description: as §1, with “plants. Wheat plants (variety Yuma) were grown from seed in a greenhouse in 50% mineral soil/50% soil-less Metro mix until the first leaf was fully emerged, with 7-10 seedlings per pot. These plants were inoculated with an aqueous spore suspension of Puccinia triticina either prior to or after fungicide treatments. […] The plants were then transferred to a greenhouse set at 24° C. for disease to develop. Fungicide formulation, application and disease assessment followed the procedures as described in the Example A.” for “plants.”

[3] = 24 h, 1 Day Protectant, read-out: Low Volume activity at 121.5 g/H SEPTTR 1DP (% disease control rating)
[4] = 72 h, 3 Day Curative, read-out: Low Volume activity at 121.5 g/H SEPTTR 3DC (% disease control rating)
[5] = 24 h, 1 Day Protectant, read-out: Low Volume activity at 121.5 g/H PUCCRT 1DP (% disease control rating)
[6] = 72 h, 3 Day Curative, read-out: Low Volume activity at 121.5 g/H PUCCRT 3DC (% disease control rating)
[7] = 24 h, 1 Day Protectant, read-out: High Volume activity at 100 ppm SEPTTR 1DP (% disease control rating)
[8] = 72 h, 3 Day Curative, read-out: High Volume activity at 100 ppm SEPTTR 3DC (% disease control rating)
[9] = 24 h, 1 Day Protectant, read-out: High Volume activity at 100 ppm PUCCRT 1DP (% disease control rating)
[10] = 72 h, 3 Day Curative, read-out: High Volume activity at 100 ppm PUCCRT 3DC (% disease control rating)

COc1ccnc(C(=O)N[C@H]2CCC[C@H](Cc3ccccc3)[C@@H](CCC(C)C)[C@H](C)OC2=O)c1OCOC(C)=O [Compound 47]
pest or weed control at 121.5 g/ha [1, 3]: > 70%
pest or weed control at 121.5 g/ha [1, 4]: > 70%
pest or weed control at 121.5 g/ha [2, 5]: > 70%
pest or weed control at 121.5 g/ha [2, 6]: < 70%

COc1ccnc(C(=O)N[C@H]2CCC[C@H](Cc3ccc(Cl)cc3)[C@@H](Cc3ccccc3)[C@H](C)OC2=O)c1OC(C)=O [Compound 21]
pest or weed control at 121.5 g/ha [1, 3]: > 70%
pest or weed control at 121.5 g/ha [1, 4]: < 70%
pest or weed control at 121.5 g/ha [2, 5]: > 70%
pest or weed control at 121.5 g/ha [2, 6]: < 70%

COc1ccnc(C(=O)N[C@H]2CCC[C@H](Cc3ccccc3)[C@@H](CCC(C)C)[C@H](C)OC2=O)c1OCOC(=O)C(C)C [Compound 50]
pest or weed control at 121.5 g/ha [1, 3]: > 70%
pest or weed control at 121.5 g/ha [1, 4]: > 70%
pest or weed control at 121.5 g/ha [2, 5]: > 70%
pest or weed control at 121.5 g/ha [2, 6]: < 70%

COc1ccnc(C(=O)N[C@H]2CCC[C@H](Cc3ccccc3)[C@@H](CCc3ccccc3)[C@H](C)OC2=O)c1OCOC(C)=O [Compound 15]
pest or weed control at 121.5 g/ha [1, 3]: > 70%
pest or weed control at 121.5 g/ha [1, 4]: > 70%
pest or weed control at 121.5 g/ha [2, 5]: > 70%
pest or weed control at 121.5 g/ha [2, 6]: < 70%

COc1ccnc(C(=O)N[C@H]2CCC[C@H](Cc3ccccc3)[C@@H](Cc3ccc(F)cc3)[C@H](C)OC2=O)c1OC(C)=O [Compound 62]
pest or weed control at 121.5 g/ha [1, 3]: > 70%
pest or weed control at 121.5 g/ha [1, 4]: > 70%
pest or weed control at 121.5 g/ha [2, 5]: > 70%
pest or weed control at 121.5 g/ha [2, 6]: < 70%

COc1ccnc(C(=O)N[C@H]2CCC[C@H](CCCc3ccccc3)[C@@H](CCc3ccccc3)[C@H](C)OC2=O)c1OC(C)=O [Compound 33]
pest or weed control at 121.5 g/ha [1, 3]: > 70%
pest or weed control at 121.5 g/ha [1, 4]: < 70%
pest or weed control at 121.5 g/ha [2, 5]: < 70%
pest or weed control at 121.5 g/ha [2, 6]: < 70%

COc1ccnc(C(=O)N[C@H]2CCC[C@H](CCC(C)C)[C@@H](C3CCCC3)[C@H](C)OC2=O)c1OC(C)=O [Compound 43]
pest or weed control at 121.5 g/ha [1, 3]: > 70%
pest or weed control at 121.5 g/ha [1, 4]: > 70%
pest or weed control at 121.5 g/ha [2, 5]: > 70%
pest or weed control at 121.5 g/ha [2, 6]: < 70%

COc1ccnc(C(=O)N[C@H]2CCC[C@H](CCC(C)C)[C@@H](Cc3ccccc3)[C@H](C)OC2=O)c1OC(C)=O [Compound 4]
pest or weed control at 121.5 g/ha [1, 3]: > 70%
pest or weed control at 121.5 g/ha [1, 4]: > 70%
pest or weed control at 121.5 g/ha [2, 5]: > 70%
pest or weed control at 121.5 g/ha [2, 6]: < 70%

COc1ccnc(C(=O)N[C@H]2CCC[C@H](Cc3ccccc3)[C@@H](CCc3ccccc3)[C@H](C)OC2=O)c1O [Compound 78]
pest or weed control at 100 ppm [1, 7]: > 70%
pest or weed control at 100 ppm [1, 8]: > 70%
pest or weed control at 100 ppm [2, 9]: > 70%
pest or weed control at 100 ppm [2, 10]: < 70%

CCOCC(=O)OCOc1c(OC)ccnc1C(=O)N[C@H]1CCC[C@H](Cc2ccc(C(F)(F)F)cc2)[C@@H](Cc2ccc(OC(F)(F)F)cc2)[C@H](C)OC1=O [Compound 66]
pest or weed control at 121.5 g/ha [1, 3]: < 70%
pest or weed control at 121.5 g/ha [1, 4]: < 70%
pest or weed control at 121.5 g/ha [2, 5]: < 70%
pest or weed control at 121.5 g/ha [2, 6]: < 70%

COc1ccnc(C(=O)N[C@H]2CCC[C@H](CCC(C)C)[C@@H](CCc3ccccc3)[C@H](C)OC2=O)c1OCOC(C)=O [Compound 34]
pest or weed control at 121.5 g/ha [1, 3]: > 70%
pest or weed control at 121.5 g/ha [1, 4]: > 70%
pest or weed control at 121.5 g/ha [2, 5]: > 70%
pest or weed control at 121.5 g/ha [2, 6]: < 70%

COc1ccnc(C(=O)N[C@H]2CCC[C@H](Cc3ccccc3)[C@@H](CCC(C)C)[C@H](C)OC2=O)c1O [Compound 88]
pest or weed control at 100 ppm [1, 7]: < 70%
pest or weed control at 100 ppm [1, 8]: > 70%
pest or weed control at 100 ppm [2, 9]: > 70%
pest or weed control at 100 ppm [2, 10]: < 70%

COc1ccnc(C(=O)N[C@H]2CCC[C@H](Cc3ccccc3)[C@@H](Cc3ccc(F)cc3)[C@H](C)OC2=O)c1O [Compound 95]
pest or weed control at 121.5 g/ha [1, 3]: > 70%
pest or weed control at 121.5 g/ha [1, 4]: > 70%
pest or weed control at 121.5 g/ha [2, 5]: > 70%
pest or weed control at 121.5 g/ha [2, 6]: < 70%

COc1ccnc(C(=O)N[C@H]2CCC[C@H](Cc3ccc(C(F)(F)F)cc3)[C@@H](Cc3ccc(F)cc3)[C@H](C)OC2=O)c1O [Compound 86]
pest or weed control at 100 ppm [1, 7]: < 70%
pest or weed control at 100 ppm [1, 8]: < 70%
pest or weed control at 100 ppm [2, 9]: > 70%
pest or weed control at 100 ppm [2, 10]: < 70%

CCC[C@H]1CCC[C@H](NC(=O)c2nccc(OC)c2OC(C)=O)C(=O)O[C@@H](C)[C@@H]1Cc1ccc(F)cc1 [Compound 46]
pest or weed control at 121.5 g/ha [1, 3]: > 70%
pest or weed control at 121.5 g/ha [1, 4]: > 70%
pest or weed control at 121.5 g/ha [2, 5]: > 70%
pest or weed control at 121.5 g/ha [2, 6]: > 70%

CCC[C@H]1CCC[C@H](NC(=O)c2nccc(OC)c2OCOC(C)=O)C(=O)O[C@@H](C)[C@@H]1Cc1ccc(F)cc1 [Compound 48]
pest or weed control at 121.5 g/ha [1, 3]: > 70%
pest or weed control at 121.5 g/ha [1, 4]: > 70%
pest or weed control at 121.5 g/ha [2, 5]: > 70%
pest or weed control at 121.5 g/ha [2, 6]: > 70%

COc1ccnc(C(=O)N[C@H]2CCC[C@H](Cc3ccc(C(F)(F)F)cc3)[C@@H](Cc3ccc(F)cc3)[C@H](C)OC2=O)c1OCOC(C)=O [Compound 39]
pest or weed control at 121.5 g/ha [1, 3]: > 70%
pest or weed control at 121.5 g/ha [1, 4]: > 70%
pest or weed control at 121.5 g/ha [2, 5]: < 70%
pest or weed control at 121.5 g/ha [2, 6]: < 70%

COc1ccnc(C(=O)N[C@H]2CCC[C@H](Cc3ccccc3)[C@@H](CCC(C)C)[C@H](C)OC2=O)c1OC(C)=O [Compound 45]
pest or weed control at 121.5 g/ha [1, 3]: > 70%
pest or weed control at 121.5 g/ha [1, 4]: > 70%
pest or weed control at 121.5 g/ha [2, 5]: > 70%
pest or weed control at 121.5 g/ha [2, 6]: < 70%

COc1ccnc(C(=O)N[C@H]2CCC[C@H](CCCc3ccccc3)[C@@H](Cc3ccccc3)[C@H](C)OC2=O)c1O [Compound 98]
pest or weed control at 100 ppm [1, 7]: > 70%
pest or weed control at 100 ppm [1, 8]: > 70%
pest or weed control at 100 ppm [2, 9]: > 70%
pest or weed control at 100 ppm [2, 10]: < 70%

COc1ccnc(C(=O)N[C@H]2CCC[C@H](CCCc3ccccc3)[C@@H](Cc3ccccc3)[C@H](C)OC2=O)c1OCOC(C)=O [Compound 70]
pest or weed control at 121.5 g/ha [1, 3]: > 70%
pest or weed control at 121.5 g/ha [1, 4]: > 70%
pest or weed control at 121.5 g/ha [2, 5]: > 70%
pest or weed control at 121.5 g/ha [2, 6]: < 70%

COc1ccnc(C(=O)N[C@H]2CCC[C@H](Cc3ccc(C(F)(F)F)cc3)[C@@H](Cc3ccc(OC(F)(F)F)cc3)[C@H](C)OC2=O)c1OCOC(C)=O [Compound 65]
pest or weed control at 121.5 g/ha [1, 3]: < 70%
pest or weed control at 121.5 g/ha [1, 4]: < 70%
pest or weed control at 121.5 g/ha [2, 5]: < 70%
pest or weed control at 121.5 g/ha [2, 6]: < 70%

COc1ccnc(C(=O)N[C@H]2CCC[C@H](CC3CC3)[C@@H](Cc3ccccc3)[C@H](C)OC2=O)c1OCOC(C)=O [Compound 61]
pest or weed control at 121.5 g/ha [1, 3]: > 70%
pest or weed control at 121.5 g/ha [1, 4]: > 70%
pest or weed control at 121.5 g/ha [2, 5]: > 70%
pest or weed control at 121.5 g/ha [2, 6]: > 70%

COc1ccnc(C(=O)N[C@H]2CCC[C@H](Cc3ccccc3)[C@@H](Cc3ccccc3)[C@H](C)OC2=O)c1OCOC(C)=O [Compound 6]
pest or weed control at 121.5 g/ha [1, 3]: > 70%
pest or weed control at 121.5 g/ha [1, 4]: > 70%
pest or weed control at 121.5 g/ha [2, 5]: > 70%
pest or weed control at 121.5 g/ha [2, 6]: > 70%

COc1ccnc(C(=O)N[C@H]2CCC[C@H](Cc3ccc(C(F)(F)F)cc3)[C@@H](CC(C)C)[C@H](C)OC2=O)c1OCOC(C)=O [Compound 23]
pest or weed control at 121.5 g/ha [1, 3]: > 70%
pest or weed control at 121.5 g/ha [1, 4]: < 70%
pest or weed control at 121.5 g/ha [2, 5]: > 70%
pest or weed control at 121.5 g/ha [2, 6]: < 70%

COc1ccnc(C(=O)N[C@H]2CCC[C@H](Cc3ccc(C(F)(F)F)cc3)[C@@H](Cc3ccccc3)[C@H](C)OC2=O)c1OCOC(=O)C(C)C [Compound 27]
pest or weed control at 121.5 g/ha [1, 3]: > 70%
pest or weed control at 121.5 g/ha [1, 4]: < 70%
pest or weed control at 121.5 g/ha [2, 5]: > 70%
pest or weed control at 121.5 g/ha [2, 6]: < 70%
